Experimental data published in PMC11817512, “In Slico Screening and In Vitro Identification of Hyperuricemia-Inhibiting Peptides from Trachurus japonicus” (Foods, 2025).
Where a SMILES comes first, the peptide text is derived from it. Where no end group is shown, it is not given here.

Legend:
XOD = molecular target: T1, XOD (Bos taurus, UniProt P80457); experiment: In vitro XOD inhibitory assay; format: biochemical; conditions: XOD from milk, xanthine substrate, PBS pH 7.4, 37 °C, absorbance 295 nm, mean ± SD, n = 3; as restated in section 3.5.1; read-out: IC50 for XOD (three-decimal values)
T1 construct: Xanthione oxidase (XOD) from milk; purchased Solarbio Co., Ltd. (Beijing, China); host or cells: milk
T1 sequence (P80457 whole entry): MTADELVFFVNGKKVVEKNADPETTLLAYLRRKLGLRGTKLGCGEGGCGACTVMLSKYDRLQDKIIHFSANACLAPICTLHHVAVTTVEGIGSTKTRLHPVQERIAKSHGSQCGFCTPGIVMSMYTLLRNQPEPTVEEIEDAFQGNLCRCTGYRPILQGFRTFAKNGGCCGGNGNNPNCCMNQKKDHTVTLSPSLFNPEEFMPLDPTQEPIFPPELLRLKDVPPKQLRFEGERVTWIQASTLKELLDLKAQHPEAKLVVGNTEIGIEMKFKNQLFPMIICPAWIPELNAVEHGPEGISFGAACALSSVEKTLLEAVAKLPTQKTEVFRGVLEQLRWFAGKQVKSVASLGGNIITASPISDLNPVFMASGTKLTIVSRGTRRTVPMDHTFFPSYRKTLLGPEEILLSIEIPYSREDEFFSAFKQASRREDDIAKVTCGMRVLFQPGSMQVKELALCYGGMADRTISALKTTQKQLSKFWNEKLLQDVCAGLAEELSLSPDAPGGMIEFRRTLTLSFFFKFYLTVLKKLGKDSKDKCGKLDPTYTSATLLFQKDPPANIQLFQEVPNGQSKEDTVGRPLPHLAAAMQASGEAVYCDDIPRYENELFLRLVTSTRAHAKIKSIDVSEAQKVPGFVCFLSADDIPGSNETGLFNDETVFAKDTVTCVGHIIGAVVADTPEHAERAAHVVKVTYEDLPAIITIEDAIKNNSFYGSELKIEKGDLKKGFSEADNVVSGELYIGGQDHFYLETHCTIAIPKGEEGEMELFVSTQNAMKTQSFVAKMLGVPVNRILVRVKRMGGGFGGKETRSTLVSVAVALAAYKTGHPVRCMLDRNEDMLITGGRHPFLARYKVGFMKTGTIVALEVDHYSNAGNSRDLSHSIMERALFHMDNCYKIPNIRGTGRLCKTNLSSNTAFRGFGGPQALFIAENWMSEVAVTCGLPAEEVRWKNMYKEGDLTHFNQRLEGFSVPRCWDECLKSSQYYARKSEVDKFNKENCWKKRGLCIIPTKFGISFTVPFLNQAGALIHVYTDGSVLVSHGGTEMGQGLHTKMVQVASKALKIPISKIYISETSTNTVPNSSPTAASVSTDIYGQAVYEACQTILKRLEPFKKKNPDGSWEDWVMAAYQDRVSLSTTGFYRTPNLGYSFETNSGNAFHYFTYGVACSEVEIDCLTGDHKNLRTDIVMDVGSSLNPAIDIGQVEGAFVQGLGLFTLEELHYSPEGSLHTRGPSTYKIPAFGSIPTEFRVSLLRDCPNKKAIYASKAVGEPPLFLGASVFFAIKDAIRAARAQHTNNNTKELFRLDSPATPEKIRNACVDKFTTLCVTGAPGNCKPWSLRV
Source text: Xanthione oxidase (XOD) from milk, 1,1-Diphenyl-2-picrylhydrazyl (DPPH), 2,2′-azino-bis(3-ethylbenzothiazoline-6-sulfonic acid) (ABTS), a xanthine oxidase assay kit, and glutathione (GSH) were purchased from Solarbio Co., Ltd. (Beijing, China). Allopurinol was purchased from Aladdin Co. Ltd. (Shanghai, China). UA was purchased from Sigma-Aldrich Co. LLC. (St. Louis, MO, USA). A Cell Counting Kit-8 (CCK-8) was obtained from APExBIO Technology LLC. (Houston, TX, USA). Other chemicals were provided by Sinopharm Chemical Reagent Co., Ltd. (Shanghai, China) and were of analytical grade.
The in vitro XOD inhibitory assay was carried out by adopting the approach of Zhao et al., with minor alterations. Xanthine and XOD were, respectively, dissolved in phosphate-buffered solution (PBS, with a pH value of 7.4) at concentrations of 1.5 mM and 0.1 U/mL. Peptides of different concentrations (10, 20, 40, 80, and 160 mM) were dissolved in the PBS. A total of 120 μL of the sample solution, 150 μL of PBS, and 100 μL of XOD solution were combined and allowed to react thoroughly at 37 °C for 15 min. Subsequently, 120 μL of xanthine solution was added and the reaction was continued for an additional 20 min. Eventually, 150 μL of 1 M HCl was added to halt further enzymatic activity, and the absorbance was determined at 295 nm by means of an ultraviolet spectrophotometer (TU-1810PC, Purkinje, Beijing, China). The XOD inhibition rate was calculated according to Equation (1).XOD inhibition rate (%) = [1 − (A1 − A3)/(A2 − A4)] × 100%(1) where A1 is the absorbance after the mixed reaction of the inhibitor, XOD, and xanthine; A2 is the absorbance after the reaction of xanthine and XOD without adding the inhibitor; A3 is the absorbance of the sample and xanthine without adding XOD; and A4 is the absorbance of the xanthine solution without adding XOD and the inhibitor. […]

HK-2 cells [1] = test system: HK-2 cells
Source text: HK-2 cells were procured from the National Collection of Authenticated Cell Cultures (SCSP-511, Shanghai, China). The cytotoxicity of the peptides was appraised through a CCK-8 assay in line with the methodology of Gan, Cao, Cai, Xiang, Li, and Luan [30]. HK-2 cells were inoculated in 96-well plates (3 × 10^4 cells per well) and cultivated in Dulbecco’s Modified Eagle Medium (DMEM; provided by Life Technologies Corp., New York, NY, USA) supplemented with 10% fetal bovine serum (FBS; from Life Technologies Corp., New York, NY, USA) at 37 °C in an atmosphere containing 5% CO2 for a duration of 24 h. Peptides were introduced into the wells, and, following a 24 h incubation period, 10 μL of CCK-8 reagent was added to each well and incubated for 1 h. The absorbance was gauged at 450 nm using a microplate reader (Spark, Tecan, Austria).

URAT1 = URAT1 urate transport / protein expression at the cellular level (Western blot); format: cell-based; conditions: HK-2 cells
Source text: (§1) The protein expressions of URAT1 and GLUT9 within cells were detected by means of Western blot, in accordance with the method of Mao, Jiang, and Mao [32]. The primary antibodies were as follows: URAT1 (1:1000; Cat#14937-1AP; Proteintech, Wuhan, China), GLUT9 (1:1000; Cat#ab223470; Abcam, Shanghai, China), and β-actin (1:5000; Cat#ab6276; Abcam). The secondary antibodies were as follows: Goat Anti-Mouse IgG H&L (HRP) (Cat#ab205719; Abcam) and Goat Anti-Rabbit IgG H&L (HRP) (Cat#ab6721; Abcam). The protein levels were quantitatively gauged using ImageJ software (1.8.0.112).

HK-2 cells [2] = experiment: Uric acid (UA) level in hyperuricemia HK-2 cell model; format: cell-based; conditions: 24 h, then 2.5 mM adenosine 30 h and XOD 12 h, n = 3
Procedure: The cell modeling process was carried out by following the method of Mao et al., with certain modifications. HK-2 cells were cultured in DMEM supplemented with 10% FBS at 37 °C under a 5% CO2 environment for 24 h. […] The control group and the model group were also cultured in the medium for the same period of time. Subsequently, the experimental group, the positive group, and the model group were incubated with 2.5 mM adenosine for 30 h and then further incubated with XOD (at a concentration of 0.005 U/mg) for 12 h. The content and concentration of UA in the cell supernatant were measured using a XOD assay kit.

GLUT9 = GLUT9 urate transport / protein expression at the cellular level (Western blot); format: cell-based; conditions: HK-2 cells
Source text: as §1

Row | Compound | IC50 (XOD) [mM] | cell viability of HK-2 at higher doses (HK-2 cells [1]) | reduction of urate transport by URAT1 in cells (URAT1) | reduction of UA levels in HK-2 cells, peptides (HK-2 cells [2]; peptide 4 mM (section 3.4)) [%] | reduction of urate transport by GLUT9 in cells (GLUT9) | reduction of UA levels in HK-2 cells, allopurinol (HK-2 cells [2]; 0.1 mM allopurinol) [%]
1 | C[C@H](N)C(=O)NCC(=O)N[C@@H](Cc1ccccc1)C(=O)O [AGF] (H-Ala-Gly-Phe-OH) | 48.6 ± 9.95 | slight reductions in cell viability |  |  |  | 
2 | N[C@@H](CC(=O)O)C(=O)N[C@@H](Cc1ccccc1)C(=O)O [DF] (H-Asp-Phe-OH; N-terminus and C-terminus assumed) |  | slight reductions in cell viability | can curtail the transport of urate by URAT1 in cells | 45.57 | can effectively diminish the transport of urate by GLUT9 within cells | 
3 | NC(=O)CC[C@H](N)C(=O)N1CCC[C@H]1C(=O)N[C@@H](CO)C(=O)N[C@@H](Cc1ccccc1)C(=O)O [QPSF] (H-QPSF-OH) | 38.4 ± 7.25 | slight reductions in cell viability |  |  |  | 
4 | Oc1ncnc2[nH]ncc12 [allopurinol, reference compound] |  |  |  |  |  | 52.25
5 | AGDDAPR [AGDDAPR] | 66 ± 10.9 | slight reductions in cell viability |  |  |  | 
